In patent US20220274980A1, “PHARMACOLOGICAL INHIBITORS OF THE ENL YEATS DOMAIN” (priority 2019, published 2022):

Legend:
[1] = Half-life in human liver microsomes; assay type: in vitro ADME; conditions: read-out: t1/2 (min) human liver microsomes
[2] = tested on: ENL target gene expression (MYC, HOXA9); experiment: qRT-PCR of ENL target gene expression; assay type: cell-based
Description: Quantitative reverse-transcriptase PCR (qRT-PCR). […] The ddCt method was used to quantify fold change differences in gene expression between control and treated samples (using expression of B2M for normalization).

[3] = Half-life in mouse liver microsomes; assay type: in vitro ADME; conditions: read-out: t1/2 (min) mouse liver microsomes
[4] = target: T1, ENL localization to chromatin of target gene promoters (Homo sapiens, UniProt Q03111); experiment: ENL ChIP-qPCR in MV4;11 cells; assay type: cell-based; conditions: HOX intergenic region as negative control locus
T1 construct: 11 cells; endogenous in cells; host or cells: MV4;11
T1 sequence (Q03111 1-559): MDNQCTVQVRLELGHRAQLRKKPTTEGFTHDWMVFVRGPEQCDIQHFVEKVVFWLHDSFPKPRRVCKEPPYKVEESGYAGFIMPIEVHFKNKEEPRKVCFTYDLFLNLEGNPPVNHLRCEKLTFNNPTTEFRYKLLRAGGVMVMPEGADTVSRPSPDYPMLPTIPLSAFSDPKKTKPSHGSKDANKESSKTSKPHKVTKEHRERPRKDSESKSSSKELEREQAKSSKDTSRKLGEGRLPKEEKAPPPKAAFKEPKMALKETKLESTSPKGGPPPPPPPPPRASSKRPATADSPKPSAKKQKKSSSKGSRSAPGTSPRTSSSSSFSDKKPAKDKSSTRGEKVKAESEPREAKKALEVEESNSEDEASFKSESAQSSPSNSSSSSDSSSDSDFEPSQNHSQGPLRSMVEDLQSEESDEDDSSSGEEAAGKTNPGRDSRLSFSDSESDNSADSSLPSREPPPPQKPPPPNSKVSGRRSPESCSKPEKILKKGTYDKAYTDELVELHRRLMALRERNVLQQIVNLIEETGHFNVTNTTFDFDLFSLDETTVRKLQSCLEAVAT
Procedure: ChIP-qPCR. Chromatin immunoprecipitation (ChIP)-qPCR of ENL was performed in MV4; 11 cells using 50 million cells per treatment. Crosslinking was performed in batches of 50 million cells in 50 mL tissue culture media by addition of 1/10 volume of 10× crosslinking solution (11% formaldehyde, 50 mM HEPES pH 7.3, 100 mM NaCl, 1 mM EDTA pH 8.0, 0.5 mM EGTA ph 8.0). After 10 min of crosslinking at room temperature, formaldehyde was quenched with 125 mM glycine, cells were then washed three times in PBS pH 7.4, flash frozen in liquid nitrogen, and stored at −80° C. Frozen pellets were thawed on ice, resuspended in cold lysis buffer 1 (LB1; 5 mL per 50 million cells; 50 mM HEPES pH 7.3, 140 mM NaCl, 1 mM EDTA, 10% glycerol, 0.5% NP-40, and 0.25% Triton X-100, Roche protease inhibitor cocktail), and rotated for 10 minutes at 4° C. LB1 was removed and pelletswere resuspended in cold lysis buffer 2 (LB2; 5 mL per 50 million cells; 10 mM Tris-HCl pH 8.0, 200 mM NaCl, 1 mM EDTA pH 8.0 and 0.5 mM EGTA pH 8.0, Roche protease inhibitor cocktail) and rotated for 10 minutes at 4° C. LB2 was removed and pellets were resuspended in cold sonication buffer (1.5 mL per 50 million cells; 50 mM HEPES pH 7.3, 140 mM NaCl, 1 mM EDTA, 1 mM EGTA, 1% Triton X-100, 0.1% Na-deoxycholate, 0.1% SDS, Roche protease inhibitor cocktail). […] Results were quantified as percentage of the input sample.

half-life [1]: 22.6 min
half-life [3]: 9.98 min
SMILES: O=C(NC1CCC1)c1ccc2nc(-c3cccc(NS(=O)(=O)NCCN4CCCCC4)c3)cn2c1 [Compound 93]
suppression of ENL target gene expression [2]: Suppression of ENL target gene expression
localization of ENL to chromatin of target gene promoters by ChIP-qPCR [4]: prevents localization of ENL to chromatin of target gene promoters
